Source: US7407775B2, “Method for identifying Listeria monocytogenes and culture medium” (Biomerieux S.A., priority 2000, dated 2008)

What was measured:
Type in all cases: cell-based
Details in all cases: 37° C., substrate 250 mg/l
[1] = system: Listeria monocytogenes ATCC 19115; test: Experiment 1: esterase substrates, same chromogenic marker, fatty acids of different chain lengths; design: key to I (intensity of the color): —: the symbol “-” corresponds to the absence of color or intensity; 0 corresponds to no activity; 0.1 corresponds to a trace of color; 0.5 corresponds to very pale coloration; 1 corresponds to clear but low-intensity coloration; 1.5 corresponds to a degree of coloration intermediate between scores 1 and 2; 2 corresponds to clear coloration of moderate intensity; 2.5 corresponds to a degree of coloration intermediate between scores 2 and 3; 3 corresponds to intense coloration; 3.5 corresponds to a degree of coloration intermediate between scores 3 and 4; 4 corresponds to very intense coloration
Description: (§1) A stock solution of each substrate at a concentration of 40 g/l was made up in a mixture of 40% Dimethylsulfoxide and 60% Polyoxyethylenesorbitan Monolaurate (Tween 20). An appropriate volume was added to three Columbia-type media while cooling to give a final substrate concentration of 250 mg/l. These dishes were divided into three areas and then each area was inoculated with a suspension (density=0.5 McFarland) of microorganisms taken from either the Applicant's own collection or the ATCC. The dishes were incubated for 48 hours at 37° C. The colonies which grew were examined by eye after 24 and 48 hours of incubation. Both the color and the intensity of the color of the colonies were recorded.
(§2) In Table 1 above, as in the following Tables, C represents the color of the colonies after incubation, I represents the intensity of the color, and the symbol “-” corresponds to the absence of color or intensity; finally, IT defines the incubation time. It should be noted that the intensity of the color is scored on an arbitrary scale but one which is consistent for all the biological specimens and media tested. This scale is valid for this experiment as well as all those that follow. It can be defined in the following way: • 0 corresponds to no activity, • 0.1 corresponds to a trace of color, • 0.5 corresponds to very pale coloration, • 1 corresponds to clear but low-intensity coloration, • 1.5 corresponds to a degree of coloration intermediate between scores 1 and 2, • 2 corresponds to clear coloration of moderate intensity, • 2.5 corresponds to a degree of coloration intermediate between scores 2 and 3, • 3 corresponds to intense coloration, • 3.5 corresponds to a degree of coloration intermediate between scores 3 and 4, • 4 corresponds to very intense coloration.

[2] = system: Listeria innocua 171; test: Experiment 2: octanoate esterase substrates with different Indoxyl-based chromogenic markers; design: key: —: the symbol “-” corresponds to the absence of color or intensity; 0 corresponds to no activity; 0.1 corresponds to a trace of color; 0.5 corresponds to very pale coloration; 1 corresponds to clear but low-intensity coloration; 1.5 corresponds to a degree of coloration intermediate between scores 1 and 2; 2 corresponds to clear coloration of moderate intensity; 2.5 corresponds to a degree of coloration intermediate between scores 2 and 3; 3 corresponds to intense coloration; 3.5 corresponds to a degree of coloration intermediate between scores 3 and 4; 4 corresponds to very intense coloration
Description: as §2
as §1, with “and 60% Tween 20. An appropriate” for “and 60% Polyoxyethylenesorbitan Monolaurate (Tween 20). An appropriate”, “added to four Columbia-type media” for “added to three Columbia-type media”

[3] = system: Listeria ivanovii 025; test: as above; design: key: —: the symbol “-” corresponds to the absence of color or intensity; 0 corresponds to no activity; 0.1 corresponds to a trace of color; 0.5 corresponds to very pale coloration; 1 corresponds to clear but low-intensity coloration; 1.5 corresponds to a degree of coloration intermediate between scores 1 and 2; 2 corresponds to clear coloration of moderate intensity; 2.5 corresponds to a degree of coloration intermediate between scores 2 and 3; 3 corresponds to intense coloration; 3.5 corresponds to a degree of coloration intermediate between scores 3 and 4; 4 corresponds to very intense coloration
Description: as §2
as §1, with “and 60% Tween 20. An appropriate” for “and 60% Polyoxyethylenesorbitan Monolaurate (Tween 20). An appropriate”, “added to four Columbia-type media” for “added to three Columbia-type media”

[4] = system: Listeria innocua ATCC 33090; test: as above; design: key: —: the symbol “-” corresponds to the absence of color or intensity; 0 corresponds to no activity; 0.1 corresponds to a trace of color; 0.5 corresponds to very pale coloration; 1 corresponds to clear but low-intensity coloration; 1.5 corresponds to a degree of coloration intermediate between scores 1 and 2; 2 corresponds to clear coloration of moderate intensity; 2.5 corresponds to a degree of coloration intermediate between scores 2 and 3; 3 corresponds to intense coloration; 3.5 corresponds to a degree of coloration intermediate between scores 3 and 4; 4 corresponds to very intense coloration
Description: as §2
as §1, with “and 60% Tween 20. An appropriate” for “and 60% Polyoxyethylenesorbitan Monolaurate (Tween 20). An appropriate”, “added to four Columbia-type media” for “added to three Columbia-type media”

[5] = system: Listeria ivanovii 018; test: as above; design: key: —: the symbol “-” corresponds to the absence of color or intensity; 0 corresponds to no activity; 0.1 corresponds to a trace of color; 0.5 corresponds to very pale coloration; 1 corresponds to clear but low-intensity coloration; 1.5 corresponds to a degree of coloration intermediate between scores 1 and 2; 2 corresponds to clear coloration of moderate intensity; 2.5 corresponds to a degree of coloration intermediate between scores 2 and 3; 3 corresponds to intense coloration; 3.5 corresponds to a degree of coloration intermediate between scores 3 and 4; 4 corresponds to very intense coloration
Description: as §2
as §1, with “and 60% Tween 20. An appropriate” for “and 60% Polyoxyethylenesorbitan Monolaurate (Tween 20). An appropriate”, “added to four Columbia-type media” for “added to three Columbia-type media”

[6] = system: Listeria innocua 166; test: as above; design: key: —: the symbol “-” corresponds to the absence of color or intensity; 0 corresponds to no activity; 0.1 corresponds to a trace of color; 0.5 corresponds to very pale coloration; 1 corresponds to clear but low-intensity coloration; 1.5 corresponds to a degree of coloration intermediate between scores 1 and 2; 2 corresponds to clear coloration of moderate intensity; 2.5 corresponds to a degree of coloration intermediate between scores 2 and 3; 3 corresponds to intense coloration; 3.5 corresponds to a degree of coloration intermediate between scores 3 and 4; 4 corresponds to very intense coloration
Description: as §2
as §1, with “and 60% Tween 20. An appropriate” for “and 60% Polyoxyethylenesorbitan Monolaurate (Tween 20). An appropriate”, “added to four Columbia-type media” for “added to three Columbia-type media”

Compound: CCCCCCCC(=O)Oc1c[nH]c2ccc(Br)cc12 [Blue-C8, 5-Bromo-3-indolyl octanoate]
- C (color of the colonies) ([1]; IT 24 h): gray
- I (intensity of the color) ([1]; IT 24 h): 1
- C (color of the colonies) ([1]; IT 48 h): gray
- I (intensity of the color) ([1]; IT 48 h): 2
- C (color of the colonies) ([2]; IT 24 h): —
- I (intensity of the color) ([2]; IT 24 h): —
- C (color of the colonies) ([2]; IT 48 h): gray
- I (intensity of the color) ([2]; IT 48 h): 0.3
- C (color of the colonies) ([3]; IT 24 h): —
- I (intensity of the color) ([3]; IT 24 h): —
- C (color of the colonies) ([3]; IT 48 h): —
- I (intensity of the color) ([3]; IT 48 h): —
- C (color of the colonies) ([4]; IT 24 h): gray
- I (intensity of the color) ([4]; IT 24 h): 0.3
- C (color of the colonies) ([4]; IT 48 h): gray
- I (intensity of the color) ([4]; IT 48 h): 0.5
- C (color of the colonies) ([5]; IT 24 h): —
- I (intensity of the color) ([5]; IT 24 h): —
- C (color of the colonies) ([5]; IT 48 h): —
- I (intensity of the color) ([5]; IT 48 h): —
- C (color of the colonies) ([6]; IT 24 h): gray
- I (intensity of the color) ([6]; IT 24 h): 0.3
- C (color of the colonies) ([6]; IT 48 h): gray
- I (intensity of the color) ([6]; IT 48 h): 1

Compound: CCCCCCCC(=O)Oc1c[nH]c2cc(Cl)c(Br)cc12 [Magenta-C8, 5-Bromo-6-chloro-3-indolyl octanoate]
- C (color of the colonies) ([2]; IT 24 h): purple
- I (intensity of the color) ([2]; IT 24 h): 0.5
- C (color of the colonies) ([2]; IT 48 h): purple
- I (intensity of the color) ([2]; IT 48 h): 3
- C (color of the colonies) ([3]; IT 24 h): —
- I (intensity of the color) ([3]; IT 24 h): —
- C (color of the colonies) ([3]; IT 48 h): —
- I (intensity of the color) ([3]; IT 48 h): —
- C (color of the colonies) ([4]; IT 24 h): purple
- I (intensity of the color) ([4]; IT 24 h): 1
- C (color of the colonies) ([4]; IT 48 h): purple
- I (intensity of the color) ([4]; IT 48 h): 2
- C (color of the colonies) ([5]; IT 24 h): —
- I (intensity of the color) ([5]; IT 24 h): —
- C (color of the colonies) ([5]; IT 48 h): —
- I (intensity of the color) ([5]; IT 48 h): —
- C (color of the colonies) ([6]; IT 24 h): purple
- I (intensity of the color) ([6]; IT 24 h): 2
- C (color of the colonies) ([6]; IT 48 h): purple
- I (intensity of the color) ([6]; IT 48 h): 3

Compound: CCCCCCCC(=O)Oc1c[nH]c2cc(Cl)ccc12 [Pink-C8, 6-Chloro-3-indolyl octanoate]
- C (color of the colonies) ([2]; IT 24 h): —
- I (intensity of the color) ([2]; IT 24 h): —
- C (color of the colonies) ([2]; IT 48 h): pink
- I (intensity of the color) ([2]; IT 48 h): 0.3
- C (color of the colonies) ([3]; IT 24 h): —
- I (intensity of the color) ([3]; IT 24 h): —
- C (color of the colonies) ([3]; IT 48 h): —
- I (intensity of the color) ([3]; IT 48 h): —
- C (color of the colonies) ([4]; IT 24 h): —
- I (intensity of the color) ([4]; IT 24 h): —
- C (color of the colonies) ([4]; IT 48 h): pink
- I (intensity of the color) ([4]; IT 48 h): 0.5
- C (color of the colonies) ([5]; IT 24 h): —
- I (intensity of the color) ([5]; IT 24 h): —
- C (color of the colonies) ([5]; IT 48 h): —
- I (intensity of the color) ([5]; IT 48 h): —
- C (color of the colonies) ([6]; IT 24 h): —
- I (intensity of the color) ([6]; IT 24 h): —
- C (color of the colonies) ([6]; IT 48 h): pink
- I (intensity of the color) ([6]; IT 48 h): 0.3

Compound: CCCCCCCCCC(=O)Oc1c[nH]c2ccc(Br)cc12 [Blue-C10, 5-Bromo-3-indolyl decanoate]
- C (color of the colonies) ([1]; IT 24 h): gray
- I (intensity of the color) ([1]; IT 24 h): 0.5
- C (color of the colonies) ([1]; IT 48 h): gray
- I (intensity of the color) ([1]; IT 48 h): 1

Compound: CCCCCCCC(=O)Oc1c[nH]c2ccc(Br)c(Cl)c12 [X-C8, 5-Bromo-4-chloro-3-indolyl octanoate]
- I (intensity of the color) ([2]; IT 24 h): —
- C (color of the colonies) ([2]; IT 48 h): turquoise
- I (intensity of the color) ([2]; IT 48 h): 0.3
- C (color of the colonies) ([3]; IT 24 h): —
- I (intensity of the color) ([3]; IT 24 h): —
- C (color of the colonies) ([3]; IT 48 h): —
- I (intensity of the color) ([3]; IT 48 h): —
- C (color of the colonies) ([4]; IT 24 h): turquoise
- I (intensity of the color) ([4]; IT 24 h): 0.3
- C (color of the colonies) ([4]; IT 48 h): turquoise
- I (intensity of the color) ([4]; IT 48 h): 0.5
- C (color of the colonies) ([5]; IT 24 h): —
- I (intensity of the color) ([5]; IT 24 h): —
- C (color of the colonies) ([5]; IT 48 h): —
- I (intensity of the color) ([5]; IT 48 h): —
- C (color of the colonies) ([6]; IT 24 h): turquoise
- I (intensity of the color) ([6]; IT 24 h): 0.3
- C (color of the colonies) ([6]; IT 48 h): turquoise
- I (intensity of the color) ([6]; IT 48 h): 0.5

Compound: CCCCCCCCC(=O)Oc1c[nH]c2ccc(Br)cc12 [Blue-C9, 5-Bromo-3-indolyl nonanoate]
- C (color of the colonies) ([1]; IT 24 h): gray
- I (intensity of the color) ([1]; IT 24 h): 1
- C (color of the colonies) ([1]; IT 48 h): gray
- I (intensity of the color) ([1]; IT 48 h): 2
